Reference: the kinase profiling compilation of Christmann-Franck et al. (2016)

Tests used:
Test in all cases: KINOMEscan competition binding
Settings in all cases: compound 10.0 µM
CDK11B (human) = CDK11B (human) (UniProt P21127)
PRKG1 (human) = PRKG1 (human) (UniProt Q13976)
MAPKAPK5 (human) = MAPKAPK5 (human) (UniProt Q8IW41)
EPHB6 (human) = EPHB6 (human) (UniProt O15197)
DAPK2 (human) = DAPK2 (human) (UniProt Q9UIK4)
DCLK3 (human) = DCLK3 (human) (UniProt Q9C098)
BLK (human) = BLK (human) (UniProt P51451)
RAF1 (human) = RAF1 (human) (UniProt P04049)
MAP3K1 (human) = MAP3K1 (human) (UniProt Q13233)
PHKG1 (human) = PHKG1 (human) (UniProt Q16816)
MAPK9 (human) = MAPK9 (human) (UniProt P45984)
MARK4 (human) = MARK4 (human) (UniProt Q96L34)
ROS1 (human) = ROS1 (human) (UniProt P08922)
PDGFRB (human) = PDGFRB (human) (UniProt P09619)
AURKA (human) = AURKA (human) (UniProt O14965)
NEK11 (human) = NEK11 (human) (UniProt Q8NG66)
DYRK1A (human) = DYRK1A (human) (UniProt Q13627)
MAP4K2 (human) = MAP4K2 (human) (UniProt Q12851)
EPHA8 (human) = EPHA8 (human) (UniProt P29322)
TAOK2 (human) = TAOK2 (human) (UniProt Q9UL54)
RPS6KA3 KD1 (human) = RPS6KA3 KD1 (human) (UniProt P51812)
GRK1 (human) = GRK1 (human) (UniProt Q15835)
ITK (human) = ITK (human) (UniProt Q08881)
ALK (human) = ALK (human) (UniProt Q9UM73)
FLT1 (human) = FLT1 (human) (UniProt P17948)
[1] = system: KIT (human), P10721 [V559D/T670I]
EPHA7 (human) = EPHA7 (human) (UniProt Q15375)
[2] = system: FLT3 (human), P36888 [N841I]
CDKL3 (human) = CDKL3 (human) (UniProt Q8IVW4)
PAK4 (human) = PAK4 (human) (UniProt O96013)
CDK8 (human) = CDK8 (human) (UniProt P49336)
[3] = system: RET (human), P07949 [V804L]
[4] = biological target: TYK2 JH1 catalytic (human) (UniProt P29597)
PLK3 (human) = PLK3 (human) (UniProt Q9H4B4)
CSNK1A1 (human) = CSNK1A1 (human) (UniProt P48729)
FGFR3 (human) = FGFR3 (human) (UniProt P22607)
MLTK (human) = MLTK (human) (UniProt Q9NYL2)
CDK14 (human) = CDK14 (human) (UniProt O94921)
EIF2AK2 (human) = EIF2AK2 (human) (UniProt P19525)
WEE1 (human) = WEE1 (human) (UniProt P30291)
SRC (human) = SRC (human) (UniProt P12931)

Sequence of EPHA7 (human) (Q15375 whole entry, looked up): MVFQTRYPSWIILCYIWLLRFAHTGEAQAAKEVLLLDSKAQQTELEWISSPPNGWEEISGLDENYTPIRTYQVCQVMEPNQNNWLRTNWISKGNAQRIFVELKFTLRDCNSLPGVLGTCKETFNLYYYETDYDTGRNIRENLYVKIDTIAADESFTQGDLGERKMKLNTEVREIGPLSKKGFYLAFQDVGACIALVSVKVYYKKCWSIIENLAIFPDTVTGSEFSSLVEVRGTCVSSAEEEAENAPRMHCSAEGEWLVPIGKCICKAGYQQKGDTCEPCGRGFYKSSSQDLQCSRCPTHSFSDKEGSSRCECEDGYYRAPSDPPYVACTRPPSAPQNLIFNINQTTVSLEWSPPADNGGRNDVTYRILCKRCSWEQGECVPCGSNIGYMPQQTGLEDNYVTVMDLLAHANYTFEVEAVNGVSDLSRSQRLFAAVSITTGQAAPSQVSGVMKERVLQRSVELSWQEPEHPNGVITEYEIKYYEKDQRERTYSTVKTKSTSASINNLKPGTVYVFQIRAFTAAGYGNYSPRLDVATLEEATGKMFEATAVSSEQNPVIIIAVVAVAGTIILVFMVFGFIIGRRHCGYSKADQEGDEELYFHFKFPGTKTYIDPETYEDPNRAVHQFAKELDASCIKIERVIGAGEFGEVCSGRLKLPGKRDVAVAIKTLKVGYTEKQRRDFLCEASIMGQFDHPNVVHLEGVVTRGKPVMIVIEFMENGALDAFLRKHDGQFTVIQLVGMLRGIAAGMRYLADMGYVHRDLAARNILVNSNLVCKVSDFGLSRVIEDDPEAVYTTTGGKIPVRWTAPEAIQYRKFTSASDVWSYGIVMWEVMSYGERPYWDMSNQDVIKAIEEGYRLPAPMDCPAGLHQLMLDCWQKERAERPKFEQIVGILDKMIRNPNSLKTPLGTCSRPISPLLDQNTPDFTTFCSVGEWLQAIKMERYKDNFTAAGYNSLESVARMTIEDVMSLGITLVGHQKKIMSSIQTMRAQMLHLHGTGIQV
Sequence of DAPK2 (human) (Q9UIK4 whole entry, looked up): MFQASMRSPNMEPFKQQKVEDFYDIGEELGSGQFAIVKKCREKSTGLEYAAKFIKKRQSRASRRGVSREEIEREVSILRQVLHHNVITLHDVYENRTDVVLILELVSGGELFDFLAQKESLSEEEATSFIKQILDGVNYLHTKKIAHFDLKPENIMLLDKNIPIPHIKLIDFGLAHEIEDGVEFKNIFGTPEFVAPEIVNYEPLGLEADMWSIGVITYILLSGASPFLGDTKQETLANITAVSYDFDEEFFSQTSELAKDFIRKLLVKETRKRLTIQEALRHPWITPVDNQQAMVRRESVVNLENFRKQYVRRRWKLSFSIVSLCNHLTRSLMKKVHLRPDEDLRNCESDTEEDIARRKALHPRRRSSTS
Sequence of KIT (human), P10721 [V559D/T670I] (P10721 whole entry V559D/T670I, looked up): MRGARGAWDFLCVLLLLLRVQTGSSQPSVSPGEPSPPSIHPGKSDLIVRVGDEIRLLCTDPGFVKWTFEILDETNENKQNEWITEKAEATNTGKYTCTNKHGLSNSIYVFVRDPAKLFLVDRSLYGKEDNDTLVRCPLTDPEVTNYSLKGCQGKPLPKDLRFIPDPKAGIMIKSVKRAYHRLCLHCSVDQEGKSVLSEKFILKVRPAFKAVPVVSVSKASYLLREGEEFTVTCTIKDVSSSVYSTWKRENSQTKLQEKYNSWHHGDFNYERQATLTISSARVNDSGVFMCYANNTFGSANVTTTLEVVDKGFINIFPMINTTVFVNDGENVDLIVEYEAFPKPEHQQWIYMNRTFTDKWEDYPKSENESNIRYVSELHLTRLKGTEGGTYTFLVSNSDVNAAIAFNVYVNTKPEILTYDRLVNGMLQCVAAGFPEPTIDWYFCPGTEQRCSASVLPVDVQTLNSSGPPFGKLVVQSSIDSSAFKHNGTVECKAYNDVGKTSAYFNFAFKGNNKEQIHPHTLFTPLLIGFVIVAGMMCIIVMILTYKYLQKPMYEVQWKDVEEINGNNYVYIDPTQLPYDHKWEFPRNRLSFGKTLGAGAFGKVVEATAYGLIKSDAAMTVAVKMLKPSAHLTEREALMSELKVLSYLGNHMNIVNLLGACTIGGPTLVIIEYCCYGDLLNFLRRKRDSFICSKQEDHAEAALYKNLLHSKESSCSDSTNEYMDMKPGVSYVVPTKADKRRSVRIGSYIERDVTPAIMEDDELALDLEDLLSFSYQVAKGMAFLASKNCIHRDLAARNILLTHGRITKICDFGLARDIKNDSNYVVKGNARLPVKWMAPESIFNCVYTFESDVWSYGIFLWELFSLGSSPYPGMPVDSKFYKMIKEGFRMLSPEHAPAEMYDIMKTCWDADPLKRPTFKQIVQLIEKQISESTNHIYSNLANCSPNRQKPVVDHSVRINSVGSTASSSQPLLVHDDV
Sequence of FGFR3 (human) (P22607 whole entry, looked up): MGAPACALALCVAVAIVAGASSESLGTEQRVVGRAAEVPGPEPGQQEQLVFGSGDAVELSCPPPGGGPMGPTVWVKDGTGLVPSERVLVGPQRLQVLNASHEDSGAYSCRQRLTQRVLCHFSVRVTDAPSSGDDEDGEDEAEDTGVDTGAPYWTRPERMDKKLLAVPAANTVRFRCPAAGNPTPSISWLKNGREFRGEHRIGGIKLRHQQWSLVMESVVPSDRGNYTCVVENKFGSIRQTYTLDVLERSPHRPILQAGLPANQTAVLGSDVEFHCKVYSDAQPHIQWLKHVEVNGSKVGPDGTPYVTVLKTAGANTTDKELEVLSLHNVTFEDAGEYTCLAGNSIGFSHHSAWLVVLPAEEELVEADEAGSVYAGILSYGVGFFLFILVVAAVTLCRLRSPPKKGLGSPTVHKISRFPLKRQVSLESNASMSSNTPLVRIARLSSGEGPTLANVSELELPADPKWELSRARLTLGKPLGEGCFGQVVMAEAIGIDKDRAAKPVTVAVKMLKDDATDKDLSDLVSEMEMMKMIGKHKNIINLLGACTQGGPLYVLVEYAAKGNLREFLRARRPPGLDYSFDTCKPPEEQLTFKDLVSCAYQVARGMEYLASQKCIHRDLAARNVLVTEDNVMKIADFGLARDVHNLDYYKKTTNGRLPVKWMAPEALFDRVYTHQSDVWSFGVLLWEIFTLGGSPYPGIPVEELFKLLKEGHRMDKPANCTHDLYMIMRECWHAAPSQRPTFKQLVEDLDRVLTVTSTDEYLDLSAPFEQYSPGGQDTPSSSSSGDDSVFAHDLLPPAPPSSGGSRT
Sequence of MLTK (human) (Q9NYL2 whole entry, looked up): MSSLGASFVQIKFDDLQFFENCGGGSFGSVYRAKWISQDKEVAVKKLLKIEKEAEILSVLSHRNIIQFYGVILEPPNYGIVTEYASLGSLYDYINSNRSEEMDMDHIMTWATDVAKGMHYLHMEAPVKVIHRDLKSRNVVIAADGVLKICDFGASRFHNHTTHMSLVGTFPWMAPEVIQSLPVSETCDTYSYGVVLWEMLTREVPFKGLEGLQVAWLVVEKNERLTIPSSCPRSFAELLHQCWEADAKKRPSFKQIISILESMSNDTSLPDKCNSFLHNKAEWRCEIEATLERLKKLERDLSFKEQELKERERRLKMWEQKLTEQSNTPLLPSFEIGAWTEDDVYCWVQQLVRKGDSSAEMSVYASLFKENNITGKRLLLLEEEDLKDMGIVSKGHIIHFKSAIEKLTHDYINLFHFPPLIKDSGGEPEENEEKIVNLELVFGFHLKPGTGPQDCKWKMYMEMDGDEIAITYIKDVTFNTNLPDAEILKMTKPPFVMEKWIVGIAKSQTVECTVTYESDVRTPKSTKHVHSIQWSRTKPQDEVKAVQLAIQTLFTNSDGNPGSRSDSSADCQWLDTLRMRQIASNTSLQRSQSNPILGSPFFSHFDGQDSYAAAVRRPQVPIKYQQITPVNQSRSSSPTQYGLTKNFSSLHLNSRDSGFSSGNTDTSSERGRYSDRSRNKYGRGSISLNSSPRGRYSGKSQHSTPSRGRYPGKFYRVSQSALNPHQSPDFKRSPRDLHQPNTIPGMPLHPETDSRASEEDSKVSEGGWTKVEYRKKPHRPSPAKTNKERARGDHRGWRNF
Sequence of CDK11B (human) (P21127 whole entry, looked up): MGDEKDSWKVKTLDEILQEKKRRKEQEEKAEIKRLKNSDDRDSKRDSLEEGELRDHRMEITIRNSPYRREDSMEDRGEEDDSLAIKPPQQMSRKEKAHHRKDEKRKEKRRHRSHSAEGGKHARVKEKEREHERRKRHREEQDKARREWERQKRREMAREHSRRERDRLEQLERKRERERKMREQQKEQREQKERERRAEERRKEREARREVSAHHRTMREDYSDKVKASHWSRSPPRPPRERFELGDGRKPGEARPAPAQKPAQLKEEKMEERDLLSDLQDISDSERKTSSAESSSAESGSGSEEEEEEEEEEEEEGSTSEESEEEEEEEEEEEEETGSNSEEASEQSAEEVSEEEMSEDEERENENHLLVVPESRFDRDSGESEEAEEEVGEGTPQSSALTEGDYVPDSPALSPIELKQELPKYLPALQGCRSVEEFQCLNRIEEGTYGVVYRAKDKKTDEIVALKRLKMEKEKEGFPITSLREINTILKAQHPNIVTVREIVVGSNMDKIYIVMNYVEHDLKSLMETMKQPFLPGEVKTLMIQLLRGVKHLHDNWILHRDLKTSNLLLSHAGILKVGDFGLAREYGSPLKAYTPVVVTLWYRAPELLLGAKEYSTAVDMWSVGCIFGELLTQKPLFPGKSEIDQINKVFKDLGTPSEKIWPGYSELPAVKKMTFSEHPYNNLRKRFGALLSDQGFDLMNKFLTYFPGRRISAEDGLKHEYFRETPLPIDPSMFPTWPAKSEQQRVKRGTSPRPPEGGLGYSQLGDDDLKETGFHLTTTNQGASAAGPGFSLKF

COc1ccc(-c2ccc3c(N4CCOCC4)nc(N4C[C@@H](C)O[C@@H](C)C4)nc3n2)cc1CO
per cent of control (CDK11B (human)): 100% | kinase still bound, per cent of control (PRKG1 (human)): 91% | kinase still bound, per cent of control (MAPKAPK5 (human)): 77% | kinase still bound, per cent of control (EPHB6 (human)): 83% | kinase still bound, per cent of control (DAPK2 (human)): 80% | kinase still bound, per cent of control (DCLK3 (human)): 100% | kinase still bound, per cent of control (BLK (human)): 100% | kinase still bound, per cent of control (RAF1 (human)): 100% | kinase still bound, per cent of control (MAP3K1 (human)): 100% | kinase still bound, per cent of control (PHKG1 (human)): 93% | kinase still bound, per cent of control (MAPK9 (human)): 76% | kinase still bound, per cent of control (MARK4 (human)): 84% | kinase still bound, per cent of control (ROS1 (human)): 100% | kinase still bound, per cent of control (PDGFRB (human)): 95% | kinase still bound, per cent of control (AURKA (human)): 80% | kinase still bound, per cent of control (NEK11 (human)): 72% | kinase still bound, per cent of control (DYRK1A (human)): 94% | kinase still bound, per cent of control (MAP4K2 (human)): 86% | kinase still bound, per cent of control (EPHA8 (human)): 80% | kinase still bound, per cent of control (TAOK2 (human)): 76% | kinase still bound, per cent of control (RPS6KA3 KD1 (human)): 99% | kinase still bound, per cent of control (GRK1 (human)): 98% | kinase still bound, per cent of control (ITK (human)): 88% | kinase still bound, per cent of control (ALK (human)): 100% | kinase still bound, per cent of control (FLT1 (human)): 92% | kinase still bound, per cent of control [1]: 80% | kinase still bound, per cent of control (EPHA7 (human)): 86% | kinase still bound, per cent of control [2]: 82% | per cent of control (CDKL3 (human)): 90% | kinase still bound, per cent of control (PAK4 (human)): 86% | per cent of control (CDK8 (human)): 100% | kinase still bound, per cent of control [3]: 100% | kinase still bound, per cent of control [4]: 100% | kinase still bound, per cent of control (PLK3 (human)): 92% | kinase still bound, per cent of control (CSNK1A1 (human)): 100% | kinase still bound, per cent of control (FGFR3 (human)): 100% | kinase still bound, per cent of control (MLTK (human)): 100% | per cent of control (CDK14 (human)): 100% | kinase still bound, per cent of control (EIF2AK2 (human)): 100% | kinase still bound, per cent of control (WEE1 (human)): 98% | kinase still bound, per cent of control (SRC (human)): 100%
